# Measured values: patent US20130115522A1, “Manufacture of LiPO2F2” (SOLVAY SA, priority 2010, published 2013)
# Assay: Solubility of LiPO2F2 (and by-product salts) in organic solvents
# Format: physicochemical
# Text: If it is desired to isolate LiPO2F2 and Li2PO3F from any LiF, polar aprotic solvents can be applied. For example, dialkyl carbonates are suitable for this purpose. Other solvents are acetone, isopropanol, tetrahydrofurane, ethyl acetate, acetonitrile, and diethyl carbonate. If it is desired to isolate selectively LiPO2F2, propylene carbonate was identified as very suitable solvent because LiPO2F2 is soluble therein, and Li2PO3F and also LiF are not. Other very suitable solvents are diethyl carbonate, a mixture of dimethyl carbonate and propylene carbonate, acetonitrile, dimethoxyethane and acetone. The solubility of LiPO2F2 in these solvents at ambient temperature is compiled in the following table 1.
# Under inert gas (nitrogen), pure LiPO2F2 was dissolved in propylene carbonate at about 20° C. such that a solution is obtained comprising about 2.75% by weight of LiPO2F2.
# Under inert gas (nitrogen), pure LiPO2F2 was dissolved in the respective solvent or solvent mixture at about 20° C. such that a solution containing the amounts of dissolved LiPO2F2 given in the following table 3 were achieved. The data for solution No. 1 was taken from example 4, the data for solutions No. 2 to 6 of table 3 correspond to those of table 1.
compound,measurement,setting,value
[F-].[Li+] [LiF],Solubility in acetone (in words),acetone,very low solubility
same,Solubility in dimethoxyethane (in words),dimethoxyethane,at most in neglectable amounts
same,"Solubility in dimethyl carbonate, propylene carbonate and mixtures thereof (in words)","dimethyl carbonate, propylene carbonate and mixtures thereof",at most in neglectable amounts
same,Solubility in propylene carbonate (in words),propylene carbonate,are not
